Experimental findings from patent publication US8637237B2, “Methods, compositions, and systems for the identification of species-specific or developmental stage-specific insecticides” (The University of North Carolina at Greensboro, priority 2003, dated 2014) are described below.

Holding throughout (type): cell-based
For one assay, the target named is T1, GRdEcR/RXR (Drosophila melanogaster, UniProt P34021, E261P/P331L/Q260P/V259R).
T1 construct: ligation of a Not I-Bam HI fragment containing the DBD and LBD of a modified EcR cDNA, EcRnx; expressed in transfected cells; host or cells: CHO
T1 sequence (P34021 259-878 V259R/Q260P/E261P/P331L limits assumed): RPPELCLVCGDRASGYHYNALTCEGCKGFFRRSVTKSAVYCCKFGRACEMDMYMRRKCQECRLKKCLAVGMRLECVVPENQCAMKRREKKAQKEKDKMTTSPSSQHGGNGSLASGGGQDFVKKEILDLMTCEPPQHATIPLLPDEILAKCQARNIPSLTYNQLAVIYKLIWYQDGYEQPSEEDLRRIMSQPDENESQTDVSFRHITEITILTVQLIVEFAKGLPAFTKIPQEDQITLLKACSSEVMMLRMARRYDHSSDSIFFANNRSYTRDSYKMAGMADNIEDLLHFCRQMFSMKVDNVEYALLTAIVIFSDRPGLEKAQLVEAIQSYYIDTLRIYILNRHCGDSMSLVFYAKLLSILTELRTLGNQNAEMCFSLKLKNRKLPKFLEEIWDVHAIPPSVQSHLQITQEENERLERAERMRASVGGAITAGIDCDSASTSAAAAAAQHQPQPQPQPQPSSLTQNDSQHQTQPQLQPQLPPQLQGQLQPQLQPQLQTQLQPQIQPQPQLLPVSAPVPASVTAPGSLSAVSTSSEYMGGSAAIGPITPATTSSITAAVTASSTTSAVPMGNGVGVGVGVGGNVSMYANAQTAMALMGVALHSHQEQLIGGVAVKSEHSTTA
T1 sequence (P28700 1-467 partner): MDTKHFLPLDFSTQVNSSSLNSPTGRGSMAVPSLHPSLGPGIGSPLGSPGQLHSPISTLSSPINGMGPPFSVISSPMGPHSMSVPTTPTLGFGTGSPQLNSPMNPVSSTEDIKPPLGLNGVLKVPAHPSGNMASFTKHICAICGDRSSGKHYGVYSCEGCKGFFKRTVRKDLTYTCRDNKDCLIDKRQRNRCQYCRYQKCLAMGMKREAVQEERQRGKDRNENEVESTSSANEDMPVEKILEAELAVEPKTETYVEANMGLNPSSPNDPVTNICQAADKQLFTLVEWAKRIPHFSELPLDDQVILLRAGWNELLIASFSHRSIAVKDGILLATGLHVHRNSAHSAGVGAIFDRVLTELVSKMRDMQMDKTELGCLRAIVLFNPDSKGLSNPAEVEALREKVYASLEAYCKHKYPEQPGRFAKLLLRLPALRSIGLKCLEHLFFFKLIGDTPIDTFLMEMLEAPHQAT
Put plainly: GRdEcR (GEcEc) chimera with RXR, (EcRE)5-ΔMTV reporter in CHO cells. As to the method:
These experiments employed a mammalian cell culture system using Chinese hamster ovary cells (CHO) to evaluate the transcriptional function of Drosophila melanogaster EcR and USP using methods described previously (U.S. Patent Application Publication No: 2005/0049230; Henrich et al, 2003). Cells were seeded in 6-well polypropylene culture plates (Falcon) with 10^5 cells per well on the day prior to transfection. Transfection was subsequently performed using either calcium phosphate (Kitareewan et al., 1996, Mol. Biol. Cell, 7:1153-1196) or a GenePorter reagent (Gene Therapy Systems, Inc; San Diego, Calif.) following manufacturer's protocols. Each well received 1.25 μg of (EcRE)5-ΔMTV-CAT (five copies of the hsp27 EcRE inserted into an mouse mammary tumor virus (MTV) promoter upstream of the chloramphenicol acetyltransferase (CAT) gene) or (EcRE)5-ΔMTV-LUC (the same promoter attached to firefly luciferase), 1.25 μg of pCH111 (SV40 early promoter linked to the β-galactosidase gene) to normalize CAT activity, and 0.25 μg of each expression plasmid (EcR, FXR, RXR, USP) that was tested. The cells were incubated with plasmid DNA for seven hours and then washed with 1×PBS. Muristerone A (murA; Alexis Biochemicals) or 20-hydroxyecdysone (20E; Sigma) dissolved in ethanol to a concentration of 10 mM was diluted as necessary to the final assay concentration (FAC) in 2 ml of fresh incubation medium that was then applied to the cells. Similarly, JHIII (Sigma) was dissolved in dimethyl sulfoxide (DMSO) to a concentration of […] and diluted into the incubation medium to its final assay concentration (20, 40, 80, 160 μM). […] A corresponding volume of ethanol and DMSO were added to control cells for all experiments. For all experiments, the cells were allowed to incubate with the medium for 24 hours before collection and cell lysates were prepared by described methods (Kitareewan et al., 1996). Both β-galactosidase and CAT reporter activity were measured based on previously used methods (Kitareewan et al, 1996). Luciferase assays using luciferrin followed the specifications of the manufacturer.
Transcriptional activity, measured as ^14C-chloramphenicol counts (for measuring CAT activity) or relative luciferase activity (RLU) was quantified for each cell lysate. The counts were then normalized by adjusting for differences in β-galactosidase activity, since β-galactosidase expression is controlled by a constitutive promoter and provides an estimate of cell mass. Data were normalized as fold-induction based on differences in reporter gene activity between hormonally treated and control cells.
In an initial series of studies, a GRdEcR chimera that consists of the rat glucocorticoid receptor (GR) activation domain attached to the EcR DBD and LBD (FIG. 1) was cotransfected along with mRXRα into CHO cells. The response of transfected cells to murA was measured using a (EcRE)5-ΔMTV-CAT reporter plasmid that carries five tandem repeats of the hsp27 EcRE linked to the MTV (mouse mammary tumor virus) promoter and the chloramphenicol acetyltransferase gene (CAT).
The prominent candidate for this JH-responsive macromolecule in insects is the structurally-related ecdysone receptor (EcR). Like FXR, EcR heterodimerizes with RXR and binds to the hsp27 ecdysone-responsive DNA element (Forman et al., 1995), but distinctively activates transcription in response to muristerone A (MurA or MUR), a synthetic ecdysone (Yao et al., 1992). […] In the experiments shown in FIG. 15A, muristerone A (MUR) was added at the indicated doses in ethanol vehicle, and increasing amounts of JH III (12, 25, or 50 μM) were added (underlying triangles). Numbers over bars indicate the ratio of the GEcEc-dependent activity produced by 50 μM JH III in the presence of the indicated dose of MUR to the activity produced by MUR alone. Relative light units (RLU) from firefly luciferase in cell lysates are expressed relative to renilla luciferase (Promega).

For a further assay, the target named is T2, VP16dEcR/USP (Drosophila melanogaster, UniProt P34021).
T2 construct: expressed in transfected cells; host or cells: CHO
T2 sequence (P34021 252-878 limits assumed): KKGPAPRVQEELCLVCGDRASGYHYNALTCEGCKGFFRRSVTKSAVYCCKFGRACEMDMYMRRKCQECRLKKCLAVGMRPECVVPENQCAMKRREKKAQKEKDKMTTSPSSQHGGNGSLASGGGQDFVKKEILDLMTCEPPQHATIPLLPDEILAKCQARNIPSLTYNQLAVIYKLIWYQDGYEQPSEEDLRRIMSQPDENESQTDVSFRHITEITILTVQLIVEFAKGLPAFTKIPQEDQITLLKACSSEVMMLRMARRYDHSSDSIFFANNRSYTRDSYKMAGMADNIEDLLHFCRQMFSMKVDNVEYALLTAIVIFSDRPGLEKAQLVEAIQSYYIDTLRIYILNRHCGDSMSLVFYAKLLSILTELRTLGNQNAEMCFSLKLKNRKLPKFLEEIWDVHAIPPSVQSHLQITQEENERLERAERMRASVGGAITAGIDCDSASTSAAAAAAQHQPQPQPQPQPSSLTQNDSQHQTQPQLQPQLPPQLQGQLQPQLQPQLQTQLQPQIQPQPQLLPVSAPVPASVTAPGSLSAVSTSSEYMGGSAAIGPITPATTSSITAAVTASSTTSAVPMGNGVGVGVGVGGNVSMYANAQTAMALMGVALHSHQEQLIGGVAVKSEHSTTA
T2 sequence (O76202 212-462 partner limits assumed): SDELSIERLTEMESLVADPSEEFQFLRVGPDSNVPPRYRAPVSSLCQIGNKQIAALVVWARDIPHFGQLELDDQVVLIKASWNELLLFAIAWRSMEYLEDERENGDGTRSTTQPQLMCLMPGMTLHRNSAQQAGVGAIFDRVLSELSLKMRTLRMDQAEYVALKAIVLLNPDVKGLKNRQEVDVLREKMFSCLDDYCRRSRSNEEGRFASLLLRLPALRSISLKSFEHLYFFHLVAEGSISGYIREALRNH
The experiment in a line: VP16dEcR with USP (VP16CfUSP), reporter in CHO cells.

In the next assay the target is T3, EcRB1/RXR (Drosophila melanogaster, UniProt P34021).
T3 construct: The plasmid encodes a version of EcRB1 that includes 878 amino acids, and deletes the F domain; expressed in transfected cells; host or cells: CHO
T3 sequence (P34021 whole entry): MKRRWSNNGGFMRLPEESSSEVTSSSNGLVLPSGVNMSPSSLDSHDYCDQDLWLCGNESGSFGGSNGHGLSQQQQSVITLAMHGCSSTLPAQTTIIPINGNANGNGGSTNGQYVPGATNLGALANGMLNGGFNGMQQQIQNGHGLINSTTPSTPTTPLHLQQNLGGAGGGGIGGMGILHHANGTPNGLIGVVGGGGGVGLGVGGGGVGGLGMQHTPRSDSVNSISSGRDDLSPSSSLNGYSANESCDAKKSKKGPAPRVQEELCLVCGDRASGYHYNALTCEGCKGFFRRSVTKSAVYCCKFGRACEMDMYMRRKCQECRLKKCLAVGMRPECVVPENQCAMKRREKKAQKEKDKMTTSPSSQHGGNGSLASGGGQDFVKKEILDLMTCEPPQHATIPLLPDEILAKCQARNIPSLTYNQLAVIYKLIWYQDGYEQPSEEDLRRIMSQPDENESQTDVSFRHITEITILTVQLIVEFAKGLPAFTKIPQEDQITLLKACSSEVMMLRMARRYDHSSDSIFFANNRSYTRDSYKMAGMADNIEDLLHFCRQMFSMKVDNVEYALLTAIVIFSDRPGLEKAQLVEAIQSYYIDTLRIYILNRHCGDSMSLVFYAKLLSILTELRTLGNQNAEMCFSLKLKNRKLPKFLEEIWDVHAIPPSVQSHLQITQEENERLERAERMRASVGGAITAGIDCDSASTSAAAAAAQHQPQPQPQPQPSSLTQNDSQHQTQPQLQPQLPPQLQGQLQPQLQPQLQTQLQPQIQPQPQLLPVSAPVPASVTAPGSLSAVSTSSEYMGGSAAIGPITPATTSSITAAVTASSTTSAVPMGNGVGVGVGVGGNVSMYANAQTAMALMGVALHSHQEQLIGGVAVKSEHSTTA
Put plainly: EcRB1 isoform with RXR, reporter in CHO cells.

Experimental for EcRB1/RXR: (§1) These experiments employed a mammalian cell culture system using Chinese hamster ovary cells (CHO) to evaluate the transcriptional function of Drosophila melanogaster EcR and USP using methods described previously (U.S. Patent Application Publication No: 2005/0049230; Henrich et al, 2003). Cells were seeded in 6-well polypropylene culture plates (Falcon) with 10^5 cells per well on the day prior to transfection. Transfection was subsequently performed using either calcium phosphate (Kitareewan et al., 1996, Mol. Biol. Cell, 7:1153-1196) or a GenePorter reagent (Gene Therapy Systems, Inc; San Diego, Calif.) following manufacturer's protocols. Each well received 1.25 μg of (EcRE)5-ΔMTV-CAT (five copies of the hsp27 EcRE inserted into an mouse mammary tumor virus (MTV) promoter upstream of the chloramphenicol acetyltransferase (CAT) gene) or (EcRE)5-ΔMTV-LUC (the same promoter attached to firefly luciferase), 1.25 μg of pCH111 (SV40 early promoter linked to the β-galactosidase gene) to normalize CAT activity, and 0.25 μg of each expression plasmid (EcR, FXR, RXR, USP) that was tested. […] Both β-galactosidase and CAT reporter activity were measured based on previously used methods (Kitareewan et al, 1996). […]
(§2) Transcriptional activity, measured as ^14C-chloramphenicol counts (for measuring CAT activity) or relative luciferase activity (RLU) was quantified for each cell lysate. […]
Experimental for VP16dEcR/USP: as §1, §2

Regarding `COC(=O)/C=C(\C)CC/C=C(\C)CC[C@H]1OC1(C)C` [JHIII, juvenile hormone III], the “increase of MurA-induced GEcEc-dependent activity by JH III” value on GRdEcR/RXR (80 μM JH III added to MurA) is reported as 3 times. On GRdEcR/RXR (80 μM JH III, no MurA), the “response of GEcEc to JH III alone” value is reported as “failed to respond”. For the same compound, the “potentiation of murA response by JHIII” value at GRdEcR/RXR (20, 40, 80, 160 μM JHIII at submaximal murA (0.1 μM and 1 μM)) is “potentiated the response of murA in a dose-dependent manner”. The “MurA + JHIII (JHIII potentiation)” value on GRdEcR/RXR (GRdEcR/RXR, 0.1 μM murA + 80 μM JHIII) is listed as “+ ((+) indicates observed potentiation that exceeds 2-fold above the levels observed with ecdysteroid alone)”; at VP16dEcR/USP (0.1 μM murA + 80 μM JHIII) it was “+ ((+) indicates observed potentiation that exceeds 2-fold above the levels observed with ecdysteroid alone)”; on EcRB1/RXR (0.1 μM murA + 80 μM JHIII), “+ ((+) indicates observed potentiation that exceeds 2-fold above the levels observed with ecdysteroid alone)”. The “effect of JHIII alone on transcription” value at GRdEcR/RXR (no murA) is reported as “did not show an effect”.
Turning to `CC(C)CC[C@@H](O)[C@](C)(O)[C@H]1CC[C@@]2(O)C3=CC(=O)[C@]4(O)C[C@@H](O)[C@@H](O)C[C@]4(C)[C@H]3[C@H](O)C[C@]12C` [murA, muristerone A], the “lowest murA dosage evoking a detectable response” value on GRdEcR/RXR (GRdEcR + RXR, CAT reporter) came to 0.1 µM. Moreover, the “MurA (inducibility)” value at GRdEcR/RXR (GRdEcR/RXR, 0.1 μM murA) is recorded as “+ ((+) designates a change in transcriptional level that exceeds 2.5-fold)”; on VP16dEcR/USP (0.1 μM murA) it was “+ ((+) designates a change in transcriptional level that exceeds 2.5-fold)”; on EcRB1/RXR (0.1 μM murA) it was “+ ((+) designates a change in transcriptional level that exceeds 2.5-fold)”.
For the compound juvocimene, the “potentiation of MUR-inducible GEcEc-dependent activity” value on GRdEcR/RXR (25 μM test compound, 0.2 μM muristerone A) is “between two and four times”.
